Peptide text beside a SMILES is read from it. * marks the point of attachment. X1 = O=C(C[NH+]1CC[NH2+][Pt-2]1([Cl])[Cl])*
Key:
MCF-7 cells = experiment: Quantitative determination by atomic absorption of cisplatin transported into tumour cells; assay type: cell-based, human
Experimental: The target cells MCF-7 were trypsinized, washed twice with buffered solution (PBS) and treated with 50 μl of 35% HNO3 for 16 hours. The platin content was determined by subjecting the samples to atomic absorption with an Analyst 800 instrument, by Perkin-Elmer, Norwalk, Conn., USA, using the following parameters: pre-treatment temperature, 1300° C.; atomization temperature, 2200° C.; using as the matrix modifier a composition of 0.015 mg of […] with 0.01 mg of Mg(NO3)2. The measurements were performed using the “Zeeman-effect background” correction system with Pyrolytic graphite-coated THGA tube (Perkin Elmer) and an integrated Lvov-type platform was used for metal determination. As standard solution we used a 2.5% HNO3 solution (Spectrascan) to obtain three reference points on the calibration curve.

Bax gene, normal cells = experiment: Bax gene expression in normal cells (FIG. 2); assay type: cell-based
From the text: FIG. 2 confirms the apoptotic action of the rMnSOD-Lp-CC complex on various cell lines.
In the experiment, actin cDNA was inserted as control of quantitative DNA expression; to note that again in this case (a) indicates untreated cells, (b) indicates cells treated with the leader peptide of rMnSOD (b), and (c) indicates cells treated with the leader peptide conjugated to cisplatin.

[1] = system: tumour cell lines (MCF7, M1735, MRC5 and A2780); experiment: Immunocytochemistry with anti-leader peptide antibody on treated cell lines (FIG. 1); assay type: cell-based, human; settings: immunohistochemical reaction, three hours of incubation
Experimental: The target cells (MCF-7) in continuous culture, derived from a mammary tumour of human origin, were incubated for three hours in the presence or absence of: (a) 24-amino acid leader peptide of rMnSOD-Lp-CC not conjugated to any other molecules, (b) 24-amino acid leader peptide conjugated to cisplatin.
After incubation, the cells were fixed with Zamboni fixative (solution composed of 4% paraformaldehyde+15% picric acid) for 60 minutes and washed with PBS. The cells were then maintained in PBS containing 0.3% hydrogen peroxide, with the aim of blocking endogenous peroxidases. The polyclonal antibody (anti-leader peptide of rMnSOD obtained from rabbit), diluted 1/200 was then added to the cells and left for 1 hour at ambient temperature. To develop the reaction, a DAKO SLAB Peroxidase K0679 kit was used.

tumour cells = settings: recent study, state of the art; cited from earlier work

N.N.[Cl][Pt][Cl] [Cisplatin, cisplatin]
quantity of Pt, MCF-7 Pellet (MCF-7 cells; MCF-7 Pellet, atomic absorption): 2.3 ng-Pt ng Pt
quantity of cisplatin, MCF-7 Solution (MCF-7 cells; MCF-7 Solution, atomic absorption): Cisplatin 8.7 μg/l
quantity of Pt, MCF-7 Solution (MCF-7 cells; MCF-7 Solution, atomic absorption, value in brackets): (3.5 μg Pt)

CSCC[C@H](NC(=O)C[NH+]1CC[NH2+][Pt-2]1([Cl])[Cl])C(=O)N[C@@H](CC(C)C)C(=O)N[C@@H](CO)C(=O)N[C@@H](CCCNC(=N)N)C(=O)N[C@@H](C)C(=O)N[C@H](C(=O)N[C@@H](CS)C(=O)NCC(=O)N[C@H](C(=O)N[C@@H](CO)C(=O)N[C@@H](CCCNC(=N)N)C(=O)N[C@@H](CCC(N)=O)C(=O)N[C@@H](CC(C)C)C(=O)N[C@@H](C)C(=O)N1CCC[C@H]1C(=O)N[C@@H](C)C(=O)N[C@@H](CC(C)C)C(=O)NCC(=O)N[C@@H](Cc1ccc(O)cc1)C(=O)N[C@@H](CC(C)C)C(=O)NCC(=O)N[C@@H](CO)C(=O)N[C@@H](CCCNC(=N)N)C(=O)N[C@@H](CCC(N)=O)C(=O)O)[C@@H](C)O)C(C)C (some centres unmarked) [rMnSOD-Lp-CC] (X1-MLSRAVCGTSRQLAPALGYLGSRQ-OH)
toxic reaction / Bax gene expression (Bax gene, normal cells): does not induce any toxic reaction

MLSRAVCGTSRQLAPALGYLGSRQ [leader peptide of rMnSOD]
quantity of cisplatin transported into cells relative to cisplatin alone (MCF-7 cells; tumour cells, Table 1): double
penetration into tumour cells / cell damage [1]: penetrated tumour cells without damaging the cells

B1: LSA-type-MnSOD: manganese superoxide dismutase secreted by a liposarcoma cell line, 30 kDa (protein, UniProt P04179 25-222, looked up)
Superoxide dismutase [Mn], …: KHSLPDLPYDYGALEPHINAQIMQLHHSKHHAAYVNNLNVTEEKYQEALAKGDVTAQIALQPALKFNGGGHINHSIFWTNLSPNGGGEPKGELLEAIKRDFGSFDKFKEKLTAASVGVQGSGWGWLGFNKERGHLQIAACPNQDPLQGTTGLIPLLGIDVWEHAYYLQYKNVRPDYLKAIWNVINWENVTERYMACKK
cytotoxicity to tumour cells (tumour cells): cytotoxic specifically and selectively to tumour cells

B2: rMnSOD: recombinant form of LSA-type-MnSOD produced by specific cDNA clones (protein, UniProt P04179 25-222, looked up)
Superoxide dismutase [Mn], …: B1 Superoxide dismutase [Mn], …
cytotoxicity to tumour cells (tumour cells): retain the structural and oncotoxic properties of the native protein

From patent US8481481B2, “Peptides and their use as carriers into cancer cells” (Advanced Accelerator Applications S.A., priority 2008, dated 2013)
